Laboratory results reported in the supplement of paper PMC3974653.
Counter-ions that a name gives are not always drawn.

These molecules were tested on MTT (mouse pheochromocytoma) (assay: IC50 of cell viability (ATP content)). Details: (24 or 48 h).
Outline: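 MTT mouse pheochromocytoma cells (5 µl of 200,000 cells/ml per well, white 1536-well plates, DMEM with 5% FBS and 1% horse serum) were cultured overnight at 37°C, 5% CO2. They then received 23 nl library compound in DMSO by pintool at 8 concentrations (final 0.5 nM to 46 µM) for 24 or 48 hrs. CellTiter-Glo ATP luminescence was read after 15 minutes. Signals were normalised to positive-control (100% inhibition) and DMSO (0%) wells, and IC50 came from a four-parameter logistic fit.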

Structure (SMILES)	IC50 of cell viability [µM]
CCOC(=O)[C@H](CCc1ccccc1)NC(C)C(=O)N1CC2(CC1C(=O)O)SCCS2 (stereo partly specified) [Spirapril]	> 46
CC(CC(C#N)(c1ccccc1)c1ccccc1)N(C)C (stereo unspecified) [(?)-4-Dimethylamino-2,2-diphenylvaleronitrile]	> 46
CO[C@@]1(NC(=O)CSC[C@@H](N)C(=O)O)C(=O)N2C(C(=O)O)=C(CSc3nnnn3C)CS[C@@H]21 [CEFMINOX SODIUM]	> 46
Oc1ccc(CCNCCCCCCNCCc2ccccc2)cc1O [Dopexamine]	> 46
CC(=O)Oc1c(C)cc(OCC(O)CNC(C)C)c(C)c1C (stereo unspecified) [Metipranolol]	> 46
CC(=O)[C@@]1(O)CC[C@@H]2[C@@H]3CCC/4=C/C(=O)CC[C@]4(C)[C@]3(F)[C@@H](O)C[C@]12C [Flugestone]	> 46
N#C[C@@H]1C[C@@H]2C[C@@H]2N1C(=O)[C@@H](N)C12CC3CC(CC(O)(C3)C1)C2 [Saxagliptin]	> 46
O=C(CCCCC(=O)Nc1c(I)cc(I)c(C(=O)O)c1I)Nc1c(I)cc(I)c(C(=O)O)c1I [Iodipamide]	> 46
CC1(C)SC2C(NC(=O)C(c3ccccc3)S(=O)(=O)[O-])C(=O)N2C1C(=O)[O-] (stereo unspecified) [SULBENICILLIN DISODIUM]	> 46
O=C(c1ccccc1)c1ccccc1 [Benzophenone]	> 46
O=P([O-])(O)C(Cl)(Cl)P(=O)([O-])O.[Na+].[Na+] [Clodronic acid]	> 46
CC(C)(C)CC(C)(C)c1ccc(OCCO)cc1 [Triton X-100]	> 46
O=[N+]([O-])c1cc([N+](=O)[O-])c2ccccc2c1 [1,3-Dinitronaphthalene]	> 46
C[N@@+]12CCC(CC1)[C@@H](C2)OC(=O)C(O)(C3=CC=CC=C3)C4=CC=CC=C4 [Clidinium bromide]	> 46
CNC1C(O)C(OC2C(N)CC(N)C(OC3OC(CN)=CCC3N)C2O)OCC1(C)O (stereo unspecified) [PENTISOMICINUM]	> 46
O=C(O)Cc1ccccc1 [a-Toluic acid]	> 46
O[C@H]1[C@H]2[C@H](O)CCCN2C[C@H]1O [TRIDOLGOSIRUM]	> 46
COC(=O)[C@H](Cc1ccccc1)NC(=O)[C@@H](N)CC(=O)O [Aspartame]	> 46
C[C@]12CC[C@H]3[C@@H](CCC/4=C/C(=O)CC[C@]34C)[C@@H]1CCC2=O [ANDROSTENEDIONE]	> 46

Structure (SMILES)	IC50 of cell viability [µM]
CC(=O)Oc1ccc(C(c2ccc(OC(C)=O)cc2)c2ccccn2)cc1 [Bisacodyl]	> 46
CC/1=N/C2=CC=CC=C2C(=O)N1C3=C(Cl)C=CC=C3 [Mecloqualone]	> 46
CN1C[C@H](C(=O)N[C@]2(C)O[C@@]3(O)[C@@H]4CCCN4C(=O)[C@H](Cc4ccccc4)N3C2=O)C[C@@H]2c3cccc4[nH]cc(c34)C[C@H]21 [DIHYDROERGOTAMINE]	> 46
Clc1ccc([C@H](Cn2ccnc2)OCc2c(Cl)cccc2Cl)c(Cl)c1 [Isoconazole]	> 46
Nc1c2c(nc3ccccc13)CCCC2 [TACRINE]	> 46
CC(C)(C(=O)c1cccnc1)c1cccnc1 [Metyrapone]	> 46
CC(C(=O)O)c1ccc(N2Cc3ccccc3C2=O)cc1 (stereo unspecified) [INDOPROFEN]	> 46
O=C(CN1CCNCC1)NC1CCCCC1 [Esaprazola]	> 46
CCNC(C)Cc1cccc(C(F)(F)F)c1 (single isomer, unassigned; (-)) [(-)-Fenfluramine]	> 46
O=C(COc1ccc(Cl)cc1)OCCNC12C[C@H]3C[C@@H](C1)C[C@@H](C2)C3 [Adafenoxate]	> 46
CC[C@H]1NC(=O)c2cc([S+](N)(=O)[O-])c(Cl)cc2N1 [Quinethazone]	> 46
CCC(C)C1OC2(C=CC1C)CC1CC(CC=C(C)C(OC3CC(OC)C(OC4CC(OC)C(NC(C)=O)C(C)O4)C(C)O3)C(C)C=CC=C3COC4C(O)C(C)=CC(C(=O)O1)C34O)O2 (stereo unspecified) [Eprinomectin B1a]	> 46
CC(C)CCON=O [Isoamyl nitrite]	> 46
N=C(N)c1ccc(/C=C/c2ccc(C(=N)N)cc2O)cc1 [HYDROXYSTILBAMIDINE ISETHIONATE]	> 46
CCCCC1C(=O)N(c2ccccc2)N(c2ccccc2)C1=O [Phenylbutazone]	> 46
C[C@H](N)C(=O)N[C@@H](C)P(=O)(O)O [ALAFOSFALINUM]	> 46
C[C@@H]1O[C@@H](O[C@H]\2CC[C@]\3(C)[C@@H]4CC[C@]5(C)[C@@H](CC[C@@]5(O)[C@H]4CCC3=C2)C/6=C/OC(=O)/C=C6)[C@H](O)[C@H](O)[C@@H]1O [Proscillaridin A]	> 46
O=[N+]([O-])c1ccc([As](=O)(O)O)cc1 [NITARSONE]	> 46

Next, values leading:

IC50 of cell viability [µM]	Structure (SMILES)
> 46	Cc1ccc(C2(O)CCN(CCCC(=O)c3ccc(F)cc3)CC2)cc1 [Moperone]
> 46	N=C(N)NC(=O)c1nc(Cl)c(N)nc1N [AMILORIDE]
> 46	Cc1ccc(S(=O)(=O)[N-]Cl)cc1.O.O.O.[Na+] [Chloramine T trihydrate]
> 46	COc1nc(N)nc2c1ncn2C1OC(CO)C(O)C1O (stereo unspecified) [NELARABINE]
> 46	O=C(O)c1ccc([S+](=O)([O-])N(Cl)Cl)cc1 [HALAZONE]
> 46	OCCN(CCO)c1nc(N2CCCCC2)c2nc(N(CCO)CCO)nc(N3CCCCC3)c2n1 [DIPYRIDAMOLE]
> 46	O=C(Nc1ccc(Oc2ccc(Cl)cc2)c(Cl)c1)c1cc(I)cc(I)c1O [Rafoxanide]
> 46	CCc1cccc2c3c([nH]c12)[C@](CC)(CC(=O)O)OCC3 [Etodolac]
> 46	O=C1c2cccc(O)c2C(=O)c2c(O)cccc21 [Danthron]
> 46	C#CCN(C)CCCOc1ccc(Cl)cc1Cl.Cl [Clorgyline hydrochloride]
> 46	CC(=O)OCC(=O)Nc1cc(C#N)cc(NC(=O)COC(C)=O)c1Cl [Acreozast]
> 46	CN1C(=O)OC(C)(C)C1=O [Trimethadione]
> 46	COc1ccc(/C=C/C(=O)c2ccc(OC)cc2OC)cc1 [Metochalcone]
> 46	OCC(O)C(O)C(O)C(O)CO (stereo unspecified) [galactitol]
> 46	COc1cc([C@H]2Oc3cc([C@H]4Oc5cc(O)cc(O)c5C(=O)[C@@H]4O)ccc3O[C@@H]2CO)ccc1O [Silibinin]
> 46	C/C1=C2/N=C(C=C3N=C(/C(C)=C4\[N-][C@@H]([C@H](CC(N)=O)[C@]4(C)CCC(=O)NC[C@@H](C)OP(=O)([O-])O[C@@H]4[C@@H](O)[C@H](n5cnc6cc(C)c(C)cc65)O[C@@H]4CO)[C@@]4(C)N=C1[C@H](CCC(N)=O)[C@@]4(C)CC(N)=O)[C@H](CCC(N)=O)C3(C)C)[C@@H](CCC(N)=O)[C@@]2(C)CC(N)=O.[CH3-].[Co+3] [Mecobalamin]
> 46	Cl.CN\1CCC\N=C1COC(=O)C(O)(C2CCCCC2)C3=CC=CC=C3 (stereo unspecified) [OXYPHENCYCLIMINE HYDROCHLORIDE]
> 46	CN1CCCC[C@@H]1CCN1c2ccccc2Sc2ccc([S+](C)[O-])cc21 (stereo partly specified) [mesoridazine]
> 46	NC/1=N/C(=O)N(/C=C1)[C@@H]2O[C@H](CO)[C@@H](O)C2(F)F [GEMCITABINE HYDROCHLORIDE]
> 46	N=C(N)NCCC[C@H](NC(=O)[C@@H]1CCCN1C(=O)[C@@H]1CSSC[C@H](N)C(=O)N[C@@H](Cc2ccc(O)cc2)C(=O)N[C@@H](Cc2ccccc2)C(=O)N[C@@H](CCC(N)=O)C(=O)N[C@@H](CC(N)=O)C(=O)N1)C(=O)NCC(N)=O [Argipressin acetate]
> 46	N=C(N)NCCCC[C@@H]1NC(=O)CCSSC[C@@H](C(N)=O)NC(=O)[C@@H]2CCCN2C(=O)[C@H](Cc2c[nH]c3ccccc23)NC(=O)[C@H](CC(=O)O)NC(=O)CNC1=O [EPTIFIBATIDE]
> 46	Nc1ccc([S+](=O)([O-])Nc2ccccc2)cc1 [Sulfabenz]
> 46	COCCOC(=O)C1=C(C)NC(C)=C(C(=O)OC/C=C/c2ccccc2)C1c1cccc([N+](=O)[O-])c1 (stereo unspecified) [Cilnidipine]
> 46	O=C(O)c1cccnc1 [NIACIN]
> 46	Nc1ncnc2c1ncn2[C@@H]1O[C@H](COP(=O)(O)OP(=O)(O)OP(=O)(O)O)[C@@H](O)[C@H]1O [ADENOSINE TRIPHOSPHATE]
> 46	CCCCC(CC)CCC(CC(C)C)OS(=O)(=O)[O-] (stereo unspecified) [NiaproofÆ 4]
> 46	O=C(NN1CCCC1)N[S+](=O)([O-])c1ccc(Cl)cc1 [GLYCLOPYRAMIDE]
> 46	CCN(CC)CC#CCOC(=O)[C@@](O)(c1ccccc1)C1CCCCC1 [Oxybutynin chloride]
> 46	[Na+].[Na+].CC1CC2C3CCC/4=C/C(=O)/C=C\[C@@]4(C)[C@]3(F)C(O)C[C@]2(C)[C@]1(O)C(=O)CO[P]([O-])([O-])=O (stereo partly specified) [DEXAMETHASONE SODIUM PHOSPHATE]
